Assay results taken from US20110212100A1, “METHODS FOR MODULATING DEVELOPMENT AND EXPANSION OF IL-17 EXPRESSING CELLS” (priority 2007, published 2011).

Key:
[1] = tested on: AAR pathway in splenocytes; assay: In vivo activation of the AAR pathway in splenocytes of HF-injected mice; parameters: species or system C57B/6 mice; conditions: 2.5 μg HF i.p., 6 hours post injection
Protocol: FIG. 20A is a graph depicting splenocytes from control- and HF-treated mice. C57B/6 mice were injected i.p. with vehicle (DMSO) or 2.5 μg HF. Spleens were harvested 6 hours post injection, red blood cells were lysed and total splenocytes were counted. Data are presented as mean cell counts±SD from 2 mice per group.
FIG. 20C is a graph depicting eIF2α expression in control- and HF-treated mice. Splenocytes from mice injected with DMSO or HF as above were harvested 6 hours post injection. Red blood cells were lysed and immunoblotting was performed on whole cell extracts for phosphorylated or total eIF2α as indicated.
FIG. 20D is a graph depicting the results of quantitative real-time PCR (qPCR) experiments performed for AAR-associated gene expression (Asns, Gpt2, eIF4Ebp1) using cDNA generated from splenocytes of mice injected with DMSO or HF as above. Expression of AAR-associated genes were normalized to Hprt levels and data are presented as mean relative expression from duplicate samples±SD.
Studies were conducted to evaluate the effect of HF treatment in mice.

primary T cells = type: cell-based
Protocol: The non-specific cytoxicity of HF in both normal and transformed T-cells at high doses was evaluated. Anti-CD3/anti-CD28 activated primary T cells were harvested 6 days after activation and cultured in the presence of IL-2 with or without HF (100 nM). As a positive control, some T cells were cultured without IL-2 to induce apoptosis (FIG. 3A). Jurkat T cells, a transformed T cell leukemia line, were cultured in complete medium with or without HF (100 nM) as indicated (FIG. 3B). Both primary and Jurkat T cells were cultured for 30 hours and programmed cell death, i.e. apoptosis, was determined by Annexin V staining and propidium iodide (PI) uptake and cells were analyzed by flow cytometry. The percent of apoptotic T cells at each time point was plotted and was defined as Annexin V^+ PI^−. […] In further experiments, titrating amounts of HF were added to primary T cells and apoptosis was determine as above at the indicated time points. At 100 nM HF, but not 30 nM or lower, generalized T-cell apoptosis was observed (FIG. 3C).

[2] = tested on: CD4+ CD25− T cells activated in Th17-priming conditions; type: cell-based, mouse; conditions: 10 nM HF vs MAZ1310, mean ± SD, triplicate
RORγt = RORγt expression during Th17 differentiation (real-time PCR); type: cell-based, mouse; conditions: 10 nM HF
Protocol: T cells were harvested at the indicated times following activation, RNA was isolated and quantitative real-time PCR was performed using RORγt-specific primers and taqman probe. RORγt expression was normalized to Gapdh levels, and the data are presented as fold changes relative to naïve T cells.
Quantitative real-time PCR: T cells were activated as described above, collected at the indicated times and pellets were flash-frozen in liquid nitrogen. Total RNA was obtained by RNeasy (Quiagen, Valencia, Calif.) column purification per manufacturers instructions. RORγt expression was determined after reverse transcription using the message sensor kit (Ambion, Austin, Tex.) per manufacturers instructions and taqman primers and probe as described elsewhere (I. Ivanov, et al., Cell 126, 1121, 2006). Sybrgreen quantitative real-time PCR was performed on T cell RNA samples following reverse transcription via SuperScript II first-strand cDNA synthesis kit (Invitrogen, Carlsbad, Calif.). All PCR data was collected on an iCycler thermal cycler (Biorad, Hercules, Calif.). Primer sequences used for detecting stress response genes are listed below.

Structure (SMILES): O=C(CC1NCCCC1O)Cn1cnc2cc(Br)c(Cl)cc2c1=O (racemic) [HF, 7-bromo-6-chloro-3-[3-(3-hydroxy-2-piperidinyl)-2-oxopropyl]-4(3H)-quinazolinone]
- eIF2α phosphorylation and AAR-associated gene expression in splenocytes, in words [1]: rapidly activates eIF2α phosphorylation and AAR-associated gene expression
- concentration at which generalized T-cell apoptosis was not observed (primary T cells): ≤ 30 nM
- concentration at which generalized T-cell apoptosis was observed (primary T cells): 100 nM
- Aars transcript, fold increase HF vs. MAZ1310-3 hr ([2]; 3 hr): 2.7 ± 0.4 fold
- Aff1 transcript, fold increase HF vs. MAZ1310-3 hr ([2]; 3 hr): 2.3 ± 0.4 fold
- Aldh18a1 transcript, fold increase HF vs. MAZ1310-3 hr ([2]; 3 hr): 2.1 ± 0.5 fold
- Asns transcript, fold increase HF vs. MAZ1310-3 hr ([2]; 3 hr): 6.1 ± 1.2 fold
- Atf3 transcript, fold increase HF vs. MAZ1310-3 hr ([2]; 3 hr): 3.0 ± 0.1 fold
- Atf5 transcript, fold increase HF vs. MAZ1310-3 hr ([2]; 3 hr): 2.4 ± 0.1 fold
- Cars transcript, fold increase HF vs. MAZ1310-3 hr ([2]; 3 hr): 2.2 ± 0.4 fold
- Cd274 transcript, fold increase HF vs. MAZ1310-3 hr ([2]; 3 hr): 2.1 ± 0.2 fold
- Cebpb transcript, fold increase HF vs. MAZ1310-3 hr ([2]; 3 hr): 3.9 ± 0.6 fold
- Cebpg transcript, fold increase HF vs. MAZ1310-3 hr ([2]; 3 hr): 2.5 ± 0.5 fold
- Chd2 transcript, fold increase HF vs. MAZ1310-3 hr ([2]; 3 hr): 2.2 ± 0.3 fold
- Cldn12 transcript, fold increase HF vs. MAZ1310-3 hr ([2]; 3 hr): 3.2 ± 0.7 fold
- Clic4 transcript, fold increase HF vs. MAZ1310-3 hr ([2]; 3 hr): 2.4 ± 0.2 fold
- Cth transcript, fold increase HF vs. MAZ1310-3 hr ([2]; 3 hr): 2.2 ± 0.7 fold
- Cxcl10 transcript, fold increase HF vs. MAZ1310-3 hr ([2]; 3 hr): 2.1 ± 0.3 fold
- D8Ertd56e transcript, fold increase HF vs. MAZ1310-3 hr ([2]; 3 hr): 2.1 ± 0.3 fold
- Ddit3 transcript, fold increase HF vs. MAZ1310-3 hr ([2]; 3 hr): 5.6 ± 1.1 fold
- Et4Ebp1 transcript, fold increase HF vs. MAZ1310-3 hr ([2]; 3 hr): 6.8 ± 1.8 fold
- Gpt2 transcript, fold increase HF vs. MAZ1310-3 hr ([2]; 3 hr): 10.0 ± 1.2 fold
- Herpud1 transcript, fold increase HF vs. MAZ1310-3 hr ([2]; 3 hr): 2.4 ± 0.3 fold
- Icam1 transcript, fold increase HF vs. MAZ1310-3 hr ([2]; 3 hr): 2.0 ± 0.1 fold
- Irf1 transcript, fold increase HF vs. MAZ1310-3 hr ([2]; 3 hr): 2.0 ± 0.3 fold
- Lers transcript, fold increase HF vs. MAZ1310-3 hr ([2]; 3 hr): 2.3 ± 0.3 fold
- Mpa2l transcript, fold increase HF vs. MAZ1310-3 hr ([2]; 3 hr): 2.3 ± 0.3 fold
- Ncoa7 transcript, fold increase HF vs. MAZ1310-3 hr ([2]; 3 hr): 3.0 ± 0.3 fold
- Nfkbiz transcript, fold increase HF vs. MAZ1310-3 hr ([2]; 3 hr): 2.0 ± 0.3 fold
- Past1 transcript, fold increase HF vs. MAZ1310-3 hr ([2]; 3 hr): 2.1 ± 0.5 fold
- Pck2 transcript, fold increase HF vs. MAZ1310-3 hr ([2]; 3 hr): 4.9 ± 0.8 fold
- Pdcd1lg2 transcript, fold increase HF vs. MAZ1310-3 hr ([2]; 3 hr): 3.2 ± 0.7 fold
- Phgdh transcript, fold increase HF vs. MAZ1310-3 hr ([2]; 3 hr): 3.8 ± 0.9 fold
- Psph transcript, fold increase HF vs. MAZ1310-3 hr ([2]; 3 hr): 3.5 ± 0.4 fold
- Pvr transcript, fold increase HF vs. MAZ1310-3 hr ([2]; 3 hr): 2.0 ± 0.3 fold
- Pycr1 transcript, fold increase HF vs. MAZ1310-3 hr ([2]; 3 hr): 4.6 ± 0.7 fold
- Pycs transcript, fold increase HF vs. MAZ1310-3 hr ([2]; 3 hr): 2.1 ± 0.2 fold
- Sars1 transcript, fold increase HF vs. MAZ1310-3 hr ([2]; 3 hr): 2.0 ± 0.3 fold
- Sesn2 transcript, fold increase HF vs. MAZ1310-3 hr ([2]; 3 hr): 2.6 ± 0.3 fold
- Slamf7 transcript, fold increase HF vs. MAZ1310-3 hr ([2]; 3 hr): 2.2 ± 0.4 fold
- Slc1a4 transcript, fold increase HF vs. MAZ1310-3 hr ([2]; 3 hr): 3.2 ± 0.9 fold
- Slc6a9 transcript, fold increase HF vs. MAZ1310-3 hr ([2]; 3 hr): 2.4 ± 0.3 fold
- Slc7a3 transcript, fold increase HF vs. MAZ1310-3 hr ([2]; 3 hr): 2.0 ± 0.2 fold
- Slc14a1 transcript, fold increase HF vs. MAZ1310-3 hr ([2]; 3 hr): 2.0 ± 0.1 fold
- Trib3 transcript, fold increase HF vs. MAZ1310-3 hr ([2]; 3 hr): 7.1 ± 2.0 fold
- Trim12 transcript, fold increase HF vs. MAZ1310-3 hr ([2]; 3 hr): 2.4 ± 0.1 fold
- Vegfa transcript, fold increase HF vs. MAZ1310-3 hr ([2]; 3 hr): 3.2 ± 0.2 fold
- Xist transcript, fold increase HF vs. MAZ1310-3 hr ([2]; 3 hr): 3.5 ± 1.7 fold
- Aars transcript, fold increase HF vs. MAZ1310-6 hr ([2]; 6 hr): 2.6 ± 0.2 fold
- Aff1 transcript, fold increase HF vs. MAZ1310-6 hr ([2]; 6 hr): 2.6 ± 0.3 fold
- Aldh18a1 transcript, fold increase HF vs. MAZ1310-6 hr ([2]; 6 hr): 2.7 ± 0.2 fold
- Asns transcript, fold increase HF vs. MAZ1310-6 hr ([2]; 6 hr): 7.1 ± 0.5 fold
- Atf3 transcript, fold increase HF vs. MAZ1310-6 hr ([2]; 6 hr): 3.2 ± 0.5 fold
- Atf5 transcript, fold increase HF vs. MAZ1310-6 hr ([2]; 6 hr): 8.9 ± 1.0 fold
- Cars transcript, fold increase HF vs. MAZ1310-6 hr ([2]; 6 hr): 2.2 ± 0.3 fold
- Cd274 transcript, fold increase HF vs. MAZ1310-6 hr ([2]; 6 hr): 2.0 ± 0.1 fold
- Cebpb transcript, fold increase HF vs. MAZ1310-6 hr ([2]; 6 hr): 8.0 ± 0.2 fold
- Cebpg transcript, fold increase HF vs. MAZ1310-6 hr ([2]; 6 hr): 3.1 ± 0.5 fold
- Chd2 transcript, fold increase HF vs. MAZ1310-6 hr ([2]; 6 hr): 2.5 ± 0.5 fold
- Cldn12 transcript, fold increase HF vs. MAZ1310-6 hr ([2]; 6 hr): 4.6 ± 0.5 fold
- Clic4 transcript, fold increase HF vs. MAZ1310-6 hr ([2]; 6 hr): 2.8 ± 0.2 fold
- Cth transcript, fold increase HF vs. MAZ1310-6 hr ([2]; 6 hr): 16.0 ± 1.6 fold
- Cxcl10 transcript, fold increase HF vs. MAZ1310-6 hr ([2]; 6 hr): 2.1 ± 0.1 fold
- D8Ertd56e transcript, fold increase HF vs. MAZ1310-6 hr ([2]; 6 hr): 3.1 ± 0.8 fold
- Ddit3 transcript, fold increase HF vs. MAZ1310-6 hr ([2]; 6 hr): 5.0 ± 0.7 fold
- Et4Ebp1 transcript, fold increase HF vs. MAZ1310-6 hr ([2]; 6 hr): 5.3 ± 0.3 fold
- Gpt2 transcript, fold increase HF vs. MAZ1310-6 hr ([2]; 6 hr): 16.7 ± 2.2 fold
- Herpud1 transcript, fold increase HF vs. MAZ1310-6 hr ([2]; 6 hr): 2.7 ± 0.1 fold
- Icam1 transcript, fold increase HF vs. MAZ1310-6 hr ([2]; 6 hr): 2.8 ± 0.3 fold
- Irf1 transcript, fold increase HF vs. MAZ1310-6 hr ([2]; 6 hr): 2.6 ± 0.2 fold
- Lers transcript, fold increase HF vs. MAZ1310-6 hr ([2]; 6 hr): 2.1 ± 0.0 fold
- Mpa2l transcript, fold increase HF vs. MAZ1310-6 hr ([2]; 6 hr): 7.3 ± 1.7 fold
- Ncoa7 transcript, fold increase HF vs. MAZ1310-6 hr ([2]; 6 hr): 3.2 ± 0.5 fold
- Nfkbiz transcript, fold increase HF vs. MAZ1310-6 hr ([2]; 6 hr): 1.9 ± 0.3 fold
- Past1 transcript, fold increase HF vs. MAZ1310-6 hr ([2]; 6 hr): 2.6 ± 0.0 fold
- Pck2 transcript, fold increase HF vs. MAZ1310-6 hr ([2]; 6 hr): 7.4 ± 0.9 fold
- Pdcd1lg2 transcript, fold increase HF vs. MAZ1310-6 hr ([2]; 6 hr): 2.5 ± 0.3 fold
- Phgdh transcript, fold increase HF vs. MAZ1310-6 hr ([2]; 6 hr): 4.2 ± 0.3 fold
- Psph transcript, fold increase HF vs. MAZ1310-6 hr ([2]; 6 hr): 3.4 ± 0.3 fold
- Pvr transcript, fold increase HF vs. MAZ1310-6 hr ([2]; 6 hr): 2.0 ± 0.1 fold
- Pycr1 transcript, fold increase HF vs. MAZ1310-6 hr ([2]; 6 hr): 6.6 ± 0.4 fold
- Pycs transcript, fold increase HF vs. MAZ1310-6 hr ([2]; 6 hr): 2.3 ± 0.1 fold
- Sars1 transcript, fold increase HF vs. MAZ1310-6 hr ([2]; 6 hr): 2.3 ± 0.1 fold
- Sesn2 transcript, fold increase HF vs. MAZ1310-6 hr ([2]; 6 hr): 2.3 ± 0.2 fold
- Slamf7 transcript, fold increase HF vs. MAZ1310-6 hr ([2]; 6 hr): 2.1 ± 0.2 fold
- Slc1a4 transcript, fold increase HF vs. MAZ1310-6 hr ([2]; 6 hr): 4.6 ± 0.4 fold
- Slc6a9 transcript, fold increase HF vs. MAZ1310-6 hr ([2]; 6 hr): 5.7 ± 0.6 fold
- Slc7a3 transcript, fold increase HF vs. MAZ1310-6 hr ([2]; 6 hr): 6.5 ± 0.9 fold
- Slc14a1 transcript, fold increase HF vs. MAZ1310-6 hr ([2]; 6 hr): 6.6 ± 0.4 fold
- Trib3 transcript, fold increase HF vs. MAZ1310-6 hr ([2]; 6 hr): 18.5 ± 8.5 fold
- Trim12 transcript, fold increase HF vs. MAZ1310-6 hr ([2]; 6 hr): 4.9 ± 0.7 fold
- Vegfa transcript, fold increase HF vs. MAZ1310-6 hr ([2]; 6 hr): 5.8 ± 0.5 fold
- Xist transcript, fold increase HF vs. MAZ1310-6 hr ([2]; 6 hr): 2.1 ± 0.7 fold
- effect on upregulation of RORγt or RORγ during Th17 differentiation, in words (RORγt): did not interfere with the upregulation of RORγt or RORγ
